2 molecules from patent US20120065228A1, “COMPOSITIONS AND METHODS FOR TREATING, CONTROLLING, REDUCING, OR AMELIORATING OCULAR INFLAMMATORY WITH LOWER RISK OF INCREASED INTRAOCULAR PRESSURE” (priority 2007, published 2012) can be followed below.

Where “and” joins values, the source holds several entries; their conditions need not be identical. Equal values may be shown once.

One data set deals with myocilin mRNA. Description: Myocilin mRNA expression in monkey TM cells (qRT-PCR). The data set is classed as cell-based, rhesus monkeys (Macaca mulatta). Conditions: for EC50: Macaca mulatta, cultured monkey TM cells, weighted average, two dose-response studies each using two TM cell strains, read-out: EC50 ± SE, expression of myocilin mRNA. On the procedure: For each study, up to nine TM cell strains, each derived from an individual monkey, were tested separately. Cells were thawed and seeded into 12- or 48-well clusters (Falcon, BD Biosciences; 150,000 and 30,000 cells/well, respectively) in proliferation medium. When cells were 75% to 90% confluent proliferation medium was replaced by a 5:4 mixture of HESFM and Dulbecco's MEM, respectively, supplemented with 10% FBS, with added taurine, ascorbic acid phosphate, glutathione, and antibiotic as for proliferation medium (above), and with 2.72 g/L glucose and 1.72 g/L fructose. At confluence, the medium was changed to Dulbecco's MEM, containing 10% FBS^40, ascorbic acid phosphate, antibiotic, 2.72 g/L glucose and 1.72 g/L fructose. Cells were maintained as stable, confluent monolayers in this latter medium for 4 to 7 days before experimental treatments commenced.
After quantification of purified total RNA (Quant-iT RNA Assay kit, Molecular Probes, Eugene, Oreg.), equivalent amounts of this RNA were apportioned to generate first-strand cDNAs for each treatment sample, using random primers, (Affinity Script, Stratagene, La Jolla, Calif.). Oligonucleotide myocilin primers, designed based on the cynomolgus MYOC gene, and fluorescent Taqman probe (Applied Biosystems, Foster City, Calif.) were used for PCR amplification. Equal amounts of total RNA-equivalent mass (approximate range […]) reactant cDNA were added to the PCR Master Mix (Stratagene) and myocilin primers/Taqman probe. Amplification was performed in a thermocycler (Mx3005P, Stratagene), with an initial denaturation step at 95° C. for 10 min, followed by 40 cycles of 95° C. for 15 sec and 60° C. for 1 min for extension. Every run included standard controls (i.e., either without reverse transcriptase or lacking template). Relative quantities of myocilin mRNA abundance were determined using differences in threshold cycles (“Ct”) between vehicle control and drug treatments. Each sample was analyzed in triplicate wells, and the corresponding values averaged for further quantitative analysis. Myocilin mRNA abundance, expressed in proportion to vehicle control-treated samples, was calculated using the Mx3005P software.
Data underwent Box-Cox transformations for one- or two-way analysis of variance (ANOVA), followed by the Tukey-Kramer test, using JMP software (SAS, Cary, N.C.). The specific transformations used for analyses are mentioned in the figure legends. For each set of triplicate samples from the individual monkey TM cell strains tested, Western blot densitometry values for myocilin protein detected in CM (as geometric means), and relative abundance of myocilin mRNA (as geometric means), were plotted as a function of drug concentrations. P-values less than 0.05 were considered statistically significant. […]
Background: In qPCR the cycle at which signal appears reflects the starting amount.

The subject of a further data set is Myeloperoxidase (MPO). Description: Myeloperoxidase (MPO) activity in iris-ciliary body, rabbit paracentesis model. Format: in vivo. Conditions: for MPO Unit/g: iris-ciliary body samples collected after the second paracentesis, individual eyes (DX/SX); for MPO activity in iris-ciliary body, Mean: after the second paracentesis. As to the method: Each rabbit was placed in a restraint device and tagged with the alphanumeric code. The formulations were instilled (50 μl) into the conjunctival sac of both eyes 180, 120, 90 and 30 min before the first paracentesis; then 15, 30, 90 min after the first paracentesis. To perform the first paracentesis the animals were anaesthetized by intravenous injection of 5 mg/kg Zoletil® (Virbac; 2.5 mg/kg tiletamine HCl and 2.5 mg/kg zolazepam HCl) and one drop of local anesthetic (Novesina®, Novartis) was administered to the eye. Anterior chamber paracentesis was performed with a 26 G needle attached to a tuberculin syringe; the needle was introduced into the anterior chamber through the cornea, taking care not to damage the tissues. Two hours after the ® first paracentesis, the animals were sacrificed with 0.4 ml Tanax® (Intervet International B.V.) and the second paracentesis was performed. About 100 μl of aqueous humor were removed at the second paracentesis. Aqueous humor was immediately split in four aliquots and stored at −80° C. until analysis. Then both eyes were enucleated and the iris-ciliary body was carefully excised, placed in polypropylene tubes, and stored at −80° C. until analysis.
The activity of MPO was measured as previously described by Williams et al. The iris-ciliary bodies were carefully dried, weighed and immersed in 1 ml of hexa-decyl-trimethyl-ammonium bromide solution. Then, the samples were sonicated for 10 sec on ice by a ultrasound homogenizer (HD 2070, Bandelin electronic), freeze-thawed three times, sonicated for 10 sec and centrifuged at 14,000 g for 10 min to remove cellular debris. An aliquot of the supernatant (40-200 μl) was diluted to 3 ml with the o-dianisidine 2HCl/H2O2 solution. The change in absorbance at 460 nm was continuously monitored for 5 min by a spectrophotometer (UV/Vis Spectrometer Lambda EZ 201; Perkin Elmer). The slope of the line (Δ/min) was determined for each sample and used to calculate the number of units of MPO in the tissue as follows:
were ε=11.3 mM^−1. Values were expressed as units of MPO/g of tissue.
Pupillary diameter, PGE2, protein, PMN, and MPO were expressed as mean±SEM. Statistical analysis was performed using one way ANOVA followed by a Newman-Keuls post hoc test. Clinical score was expressed as % of eyes and the statistical analysis was performed using Kruskal-Wallis followed by a Dunn post hoc test. P<0.05 was considered statistically significant in both cases. Prism 4 software (GraphPad Software, Inc.) was used for the analysis and graphs.

A further data set relates to monkey TM cells. Description: Cell metabolic activity (resazurin reduction) assay in monkey TM cells. The following applies: at the conclusion of the treatment periods. Format: cell-based, rhesus monkeys (Macaca mulatta). As to the method:
A modification of previously described methods^40 was employed to evaluate cell metabolic activity, an index of cell viability. After collection of CM samples, cells were briefly rinsed in modified Hanks balanced salt solution containing Ca^++ and Mg^++ (“MHBSS”), and then 0.0025% (w/v) resazurin (Sigma) in MHBSS was added to sample wells. Plates were incubated (37° C., 5% CO2, 95% humidity) for 90 minutes, after which fluorescence (Excitation 560 nm, Emission 590 nm) was read (Victor 3V Multilabel Counter, Wallac, Turku, Finland). As a positive control for decreased cellular metabolic reduction of resazurin, in each plate an additional well of vehicle control-treated cells was preincubated with 0.06% hydrogen peroxide (Fisher, Atlanta, Ga.) in MHBSS.
In general terms: The colour change of resazurin is a common sign of viable cells or microbes.

For orientation: EC50 means the concentration at which the effect is half-maximal.

Consider `Cc1ccc2c(NCC(O)(CC(C)(C)c3cc(F)cc4c3OCC4)C(F)(F)F)cccc2n1` (centres unmarked) [BOL-303242-X], for which the “Maximal efficacy for myocilin mRNA expression, relative to DEX” value with myocilin mRNA (300 nM, monkey TM cells) is given as “approximately 67%”. The EC50 in the data set with myocilin mRNA turned out to be 20.8 ± 2.74 nM. Also, the “Myocilin mRNA abundance compared with DEX” value in the data set with myocilin mRNA (all doses, monkey TM cells) is listed as “significantly lower mRNA abundance values”. Besides, the “MPO Unit/g” value is 1.04 Unit/g and 1.00 Unit/g and 1.14 Unit/g and 1.06 Unit/g and 1.22 Unit/g and 0.61 Unit/g and 1.05 Unit/g and 0.65 Unit/g with Myeloperoxidase (MPO) (0.1% BOL, listed as BOL); 0.85 Unit/g and 0.93 Unit/g and 0.79 Unit/g and 1.03 Unit/g and 0.75 Unit/g and 0.74 Unit/g and 0.54 Unit/g and 0.58 Unit/g with Myeloperoxidase (MPO) (0.5% BOL, listed as BOL); 0.66 Unit/g and 0.68 Unit/g and 0.49 Unit/g and 0.40 Unit/g and 0.34 Unit/g and 1.02 Unit/g and 0.31 Unit/g and 0.43 Unit/g with Myeloperoxidase (MPO) (1% BOL, listed as BOL). In addition, the “MPO activity in iris-ciliary body, Mean” value was 0.971 MPO Unit/g in the data set on Myeloperoxidase (MPO) (0.1% topical formulation), 0.775 MPO Unit/g in the data set on Myeloperoxidase (MPO) (0.5% topical formulation) and 0.542 MPO Unit/g in the data set with Myeloperoxidase (MPO) (1% topical formulation). The “Cell viability (chemical reduction of resazurin) compared to vehicle controls” value in the data set with monkey TM cells is reported as “nor did any drug treatments result in a loss of cell viability”.

As for `C[C@@H]1C[C@H]2[C@@H]3CCC4=CC(=O)C=C[C@]4(C)[C@@]3(F)[C@@H](O)C[C@]2(C)[C@@]1(O)C(=O)CO` [dexamethasone, reference compound], the half-maximal effective concentration (EC50) with myocilin mRNA came out at 14.7 ± 1.27 nM. Moreover, the “MPO Unit/g” value in the data set with Myeloperoxidase (MPO) (0.1% Dex, listed as Dex) is 0.71 Unit/g and 0.60 Unit/g and 1.32 Unit/g and 0.48 Unit/g (2×) and 0.39 Unit/g and 0.45 Unit/g and 0.51 Unit/g. Also, in the data set on Myeloperoxidase (MPO) (0.1% topical formulation), the “MPO activity in iris-ciliary body, Mean” value is 0.618 MPO Unit/g. In addition, the “Cell viability (chemical reduction of resazurin) compared to vehicle controls” value with monkey TM cells is “nor did any drug treatments result in a loss of cell viability”.
